Test results taken from publication PMC7689640, “Analysis of the efficacy of HIV protease inhibitors against SARS-CoV-2′s main protease” (Virology Journal, 2020).
Where two headings read alike, the source gives them in different places.

Tests used:
[1] = molecular target: SARS-CoV-2 M^pro (Severe acute respiratory syndrome coronavirus 2, UniProt P0DTD1); experiment: Inhibition profiling in cell culture (dark-to-bright GFP reporter substrate, flow cytometry); format: cell-based; details: for Inhibition of SARS-CoV-2 M^pro in cell culture: 200 micromolar concentration of the inhibitors, HEK-293 T cells
[2] = patient's serum under antiretroviral treatment; cited from earlier work
[3] = test system: HEK-293 T cells; experiment: Cell viability assay (MTT); details: for Cytotoxicity: HEK-293 T cells; for Tolerability by HEK-293 T cells: high concentrations
[4] = test system: MERS-CoV; details: Calu-3 cells; cited from earlier work
[5] = test system: SARS-CoV-2; details: Vero E6 cells; cited from earlier work
[6] = test system: SARS-CoV-2; parameters: method as in PMID 32147628; details: in vitro; cited from earlier work
[7] = test system: SARS-associated coronavirus; details: combination of lopinavir/ritonavir and ribavirin; cited from earlier work
[8] = HEK-293 T cells co-transfected with CoV-2 M^pro and PR-Sub plasmids, 24 h, GFP fluorescence, triplicate experiments, read-out: IC50

CC(C)(C)NC(=O)[C@@H]1C[C@@H]2CCCC[C@@H]2CN1C[C@@H](O)[C@H](Cc1ccccc1)NC(=O)[C@H](CC(N)=O)NC(=O)c1ccc2ccccc2n1 [Saquinavir, saquinavir]
IC50 [1]: 31.4 µM
Minimum concentration (Cmin) [2]: 3800 nM
Cytotoxicity ([3]; concentrations above 50 µM): > 50%

Cc1cccc(C)c1OCC(=O)N[C@@H](Cc1ccccc1)[C@@H](O)C[C@H](Cc1ccccc1)NC(=O)[C@H](C(C)C)N1CCCNC1=O [Lopinavir, lopinavir]
IC50 [1]: Indeterminable
IC50 [4]: 11.6 µM
Cytotoxicity ([3]; concentrations above 50 µM): 90%

CC(C)c1nc(CN(C)C(=O)N[C@H](C(=O)N[C@@H](Cc2ccccc2)C[C@H](O)[C@H](Cc2ccccc2)NC(=O)OCc2cncs2)C(C)C)cs1 [Ritonavir, ritonavir]
Inhibition of viral replication [5]: no inhibition of viral replication
IC50 [4]: 24.9 µM
Cytotoxicity ([3]; concentrations above 50 µM): > 50%

Cc1c(O)cccc1C(=O)N[C@@H](CSc1ccccc1)[C@H](O)CN1C[C@H]2CCCC[C@H]2C[C@H]1C(=O)NC(C)(C)C [Nelfinavir, nelfinavir]
IC50 [1]: > 200 µM
Inhibition of SARS-CoV-2 M^pro in cell culture [1]: failed to inhibit

CC(C)CN(C[C@@H](O)[C@H](Cc1ccccc1)NC(=O)O[C@H]1CO[C@H]2OCC[C@H]21)S(=O)(=O)c1ccc(N)cc1 [Darunavir, darunavir]
IC50 ([1]; read-out: IC50): 36.1 µM
Concentration inhibiting SARS-CoV-2 replication [6]: 300 µM
Tolerability by HEK-293 T cells [3]: well tolerated

COC(=O)N[C@H](C(=O)N[C@@H](Cc1ccccc1)[C@@H](O)CN(Cc1ccc(-c2ccccn2)cc1)NC(=O)[C@@H](NC(=O)OC)C(C)(C)C)C(C)(C)C [Atazanavir, atazanavir]
IC50 [1, 8]: 60.7 µM
Minimum concentration (Cmin) [2]: < 1000 nM
Cytotoxicity ([3]; concentration of 200 µM): cytotoxicity was not observed
Tolerability by HEK-293 T cells [3]: well tolerated

NC(=O)c1ncn([C@@H]2O[C@H](CO)[C@@H](O)[C@H]2O)n1 [ribavirin]
Concentration effective against SARS-associated coronavirus [7]: 50 µg/mL

CCC[C@@]1(CCc2ccccc2)CC(O)=C([C@H](CC)c2cccc(NS(=O)(=O)c3ccc(C(F)(F)F)cn3)c2)C(=O)O1 [Tipranavir, tipranavir]
Inhibition of SARS-CoV-2 M^pro in cell culture [1]: failed to inhibit
IC50 [1, 8]: > 200 µM
